Measured values published in PubChem BioAssay (NCI).
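Briefly, cells in 96-well plates were exposed to five compound concentrations for 48 h, and endpoints were estimated by linear interpolation. Abbreviation: GI50, concentration required for 50% inhibition of growth. At the TGI there is no net growth.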

Assays:
Assay in all cases: NCI tumour cell line growth inhibition, 48 h
HS 578T breast = system: HS 578T breast
CAKI-1 renal = system: CAKI-1 renal
K-562 leukemia = system: K-562 leukemia
NCI-H23 lung = system: NCI-H23 lung
MCF7 breast = system: MCF7 breast
MDA-MB-435 = system: MDA-MB-435
SR leukemia = system: SR leukemia
HCT-116 colon = system: HCT-116 colon
LOX IMVI melanoma = system: LOX IMVI melanoma
SK-MEL-5 melanoma = system: SK-MEL-5 melanoma
MOLT-4 leukemia = system: MOLT-4 leukemia
KM12 colon = system: KM12 colon
RPMI-8226 leukemia = system: RPMI-8226 leukemia
NCI-H226 lung = system: NCI-H226 lung
786-0 renal = system: 786-0 renal
MDA-MB-231 breast = system: MDA-MB-231 breast
SNB-19 CNS = system: SNB-19 CNS
A549 NSCLC = system: A549 NSCLC
T-47D breast = system: T-47D breast
OVCAR-4 ovarian = system: OVCAR-4 ovarian
NCI-H460 lung = system: NCI-H460 lung
BT-549 breast = system: BT-549 breast
UO-31 renal = system: UO-31 renal
SF-268 CNS = system: SF-268 CNS
COLO 205 colon = system: COLO 205 colon
HCT-15 colon = system: HCT-15 colon
RXF 393 renal = system: RXF 393 renal
M14 melanoma = system: M14 melanoma
PC-3 prostate = system: PC-3 prostate
DU-145 prostate = system: DU-145 prostate
MALME-3M melanoma = system: MALME-3M melanoma
MDA-N = system: MDA-N
HOP-62 NSCLC = system: HOP-62 NSCLC
SN12C renal = system: SN12C renal
CCRF-CEM leukemia = system: CCRF-CEM leukemia
IGROV1 ovarian = system: IGROV1 ovarian
HT29 colon = system: HT29 colon
SK-MEL-2 melanoma = system: SK-MEL-2 melanoma
OVCAR-3 ovarian = system: OVCAR-3 ovarian
SF-295 CNS = system: SF-295 CNS
SW-620 colon = system: SW-620 colon
SK-OV-3 ovarian = system: SK-OV-3 ovarian
SF-539 CNS = system: SF-539 CNS
ACHN renal = system: ACHN renal
UACC-257 melanoma = system: UACC-257 melanoma
EKVX NSCLC = system: EKVX NSCLC
OVCAR-5 ovarian = system: OVCAR-5 ovarian
TK-10 renal = system: TK-10 renal
U251 CNS = system: U251 CNS
SK-MEL-28 melanoma = system: SK-MEL-28 melanoma
OVCAR-8 ovarian = system: OVCAR-8 ovarian
NCI-H522 lung = system: NCI-H522 lung
A498 renal = system: A498 renal
SNB-75 CNS = system: SNB-75 CNS
HOP-92 NSCLC = system: HOP-92 NSCLC
UACC-62 melanoma = system: UACC-62 melanoma
NCI/ADR-RES ovarian = system: NCI/ADR-RES ovarian
HCC-2998 colon = system: HCC-2998 colon
HL-60(TB) leukemia = system: HL-60(TB) leukemia

## N#Cc1nc(Cc2ccccc2)oc1N
HS 578T breast
  TGI: > 100 µM
CAKI-1 renal
  TGI: > 100 µM
K-562 leukemia
  TGI: > 100 µM
NCI-H23 lung
  TGI: > 100 µM
MCF7 breast
  TGI: > 100 µM
MDA-MB-435
  TGI: > 100 µM
SR leukemia
  TGI: > 100 µM
HCT-116 colon
  TGI: > 100 µM
LOX IMVI melanoma
  TGI: > 100 µM
SK-MEL-5 melanoma
  TGI: > 100 µM
MOLT-4 leukemia
  TGI: > 100 µM
KM12 colon
  TGI: > 100 µM
RPMI-8226 leukemia
  TGI: > 100 µM
NCI-H226 lung
  TGI: > 100 µM
786-0 renal
  TGI: > 100 µM
MDA-MB-231 breast
  TGI: > 100 µM
SNB-19 CNS
  TGI: > 100 µM
A549 NSCLC
  TGI: > 100 µM
T-47D breast
  TGI: > 100 µM
OVCAR-4 ovarian
  TGI: > 100 µM
NCI-H460 lung
  TGI: > 100 µM
BT-549 breast
  TGI: > 100 µM
UO-31 renal
  TGI: > 100 µM
SF-268 CNS
  TGI: > 100 µM
COLO 205 colon
  TGI: > 100 µM
HCT-15 colon
  TGI: > 100 µM
RXF 393 renal
  TGI: > 100 µM
M14 melanoma
  TGI: > 100 µM
PC-3 prostate
  TGI: > 100 µM
DU-145 prostate
  TGI: > 100 µM
MALME-3M melanoma
  TGI: > 100 µM
MDA-N
  TGI: > 100 µM
HOP-62 NSCLC
  TGI: > 100 µM
SN12C renal
  TGI: > 100 µM
CCRF-CEM leukemia
  TGI: > 100 µM
IGROV1 ovarian
  TGI: > 100 µM
HT29 colon
  TGI: > 100 µM
SK-MEL-2 melanoma
  TGI: > 100 µM
OVCAR-3 ovarian
  TGI: > 100 µM
SF-295 CNS
  TGI: > 100 µM
SW-620 colon
  TGI: > 100 µM
SK-OV-3 ovarian
  TGI: > 100 µM
SF-539 CNS
  TGI: > 100 µM
ACHN renal
  TGI: > 100 µM
UACC-257 melanoma
  TGI: > 100 µM
EKVX NSCLC
  TGI: > 100 µM
OVCAR-5 ovarian
  TGI: > 100 µM
TK-10 renal
  TGI: > 100 µM
U251 CNS
  TGI: > 100 µM
SK-MEL-28 melanoma
  TGI: > 100 µM

## COc1cc2cnc3c(c2cc1OC)Cc1cc2c(cc1-3)OCO2
OVCAR-8 ovarian
  GI50: 0.0527 µM
  TGI: > 100 µM
HS 578T breast
  GI50: < 0.01 µM
  TGI: > 100 µM
CAKI-1 renal
  GI50: < 0.01 µM
  TGI: > 74.7 µM
K-562 leukemia
  GI50: < 0.01 µM
  TGI: > 100 µM
NCI-H23 lung
  TGI: 24.6 µM
MCF7 breast
  GI50: 0.0333 µM
  TGI: > 81.8 µM
SR leukemia
  GI50: < 0.01 µM
  TGI: 0.0145 µM
HCT-116 colon
  TGI: > 50.3 µM
LOX IMVI melanoma
  GI50: 0.576 µM
  TGI: > 100 µM
SK-MEL-5 melanoma
  GI50: < 0.01 µM
  TGI: 5.39 µM
MOLT-4 leukemia
  GI50: < 0.01 µM
  TGI: 0.205 µM
KM12 colon
  GI50: < 0.01 µM
  TGI: > 100 µM
RPMI-8226 leukemia
  GI50: < 0.01 µM
  TGI: 85.7 µM
NCI-H522 lung
  GI50: < 0.01 µM
A498 renal
  GI50: < 0.0183 µM
  TGI: 17.8 µM
SNB-75 CNS
  GI50: 0.0109 µM
  TGI: > 49.3 µM
NCI-H226 lung
  GI50: 41.1 µM
  TGI: > 95.8 µM
786-0 renal
  TGI: > 51.9 µM
MDA-MB-231 breast
  GI50: 0.179 µM
  TGI: > 100 µM
SNB-19 CNS
  GI50: 0.0486 µM
  TGI: 37.7 µM
HOP-92 NSCLC
  GI50: > 93.6 µM
  TGI: > 100 µM
A549 NSCLC
  GI50: < 0.0153 µM
  TGI: > 54.5 µM
T-47D breast
  GI50: 1.71 µM
  TGI: > 100 µM
OVCAR-4 ovarian
  GI50: 13.6 µM
  TGI: > 62.8 µM
NCI-H460 lung
  GI50: < 0.01 µM
  TGI: 0.034 µM
BT-549 breast
  GI50: 0.391 µM
  TGI: 50.2 µM
UO-31 renal
  GI50: < 0.0193 µM
  TGI: > 43.3 µM
SF-268 CNS
  TGI: 31.3 µM
COLO 205 colon
  GI50: < 0.01 µM
  TGI: > 100 µM
HCT-15 colon
  GI50: < 0.01 µM
  TGI: > 100 µM
RXF 393 renal
  GI50: 0.0322 µM
  TGI: > 92.5 µM
M14 melanoma
  GI50: < 0.0113 µM
  TGI: > 100 µM
PC-3 prostate
  GI50: < 0.01 µM
UACC-62 melanoma
  GI50: < 0.01 µM
  TGI: 35.1 µM
DU-145 prostate
  GI50: 0.0338 µM
  TGI: > 54.1 µM
MALME-3M melanoma
  GI50: < 0.01 µM
  TGI: 74.9 µM
MDA-N
  GI50: > 100 µM
  TGI: > 100 µM
HOP-62 NSCLC
  GI50: < 0.0268 µM
  TGI: 17.4 µM
SN12C renal
  GI50: > 100 µM
  TGI: > 100 µM
CCRF-CEM leukemia
  GI50: < 0.01 µM
  TGI: 0.0344 µM
IGROV1 ovarian
  GI50: 0.014 µM
  TGI: > 62.9 µM
HT29 colon
  GI50: < 0.01 µM
  TGI: 73.4 µM
SF-295 CNS
  GI50: < 0.01 µM
  TGI: > 37.6 µM
SW-620 colon
  GI50: < 0.01 µM
  TGI: > 100 µM
NCI/ADR-RES ovarian
  GI50: < 0.01 µM
  TGI: > 81.5 µM
SK-OV-3 ovarian
  GI50: 0.0203 µM
  TGI: 26 µM
SF-539 CNS
  GI50: < 0.0132 µM
  TGI: 31.8 µM
ACHN renal
  GI50: < 0.0143 µM
  TGI: 19.4 µM
EKVX NSCLC
  GI50: 0.0279 µM
  TGI: 55.9 µM
HCC-2998 colon
  GI50: < 0.01 µM
  TGI: 0.0562 µM
OVCAR-5 ovarian
  GI50: 35.5 µM
  TGI: 77.9 µM
TK-10 renal
  GI50: < 0.01 µM
  TGI: 2.83 µM
U251 CNS
  GI50: < 0.01 µM
  TGI: 0.517 µM
SK-MEL-28 melanoma
  GI50: 1.86 µM
  TGI: > 100 µM

## C=C(Br)C(Cl)(CBr)CCC(Br)C(C)(C)Cl (stereo not given)
OVCAR-8 ovarian
  TGI: > 10 µM
CAKI-1 renal
  TGI: > 10 µM
K-562 leukemia
  TGI: > 10 µM
NCI-H23 lung
  TGI: > 10 µM
MCF7 breast
  TGI: > 10 µM
MDA-MB-435
  TGI: > 10 µM
SR leukemia
  TGI: > 10 µM
HCT-116 colon
  TGI: > 10 µM
SK-MEL-5 melanoma
  TGI: > 10 µM
MOLT-4 leukemia
  TGI: > 10 µM
KM12 colon
  TGI: > 10 µM
RPMI-8226 leukemia
  TGI: > 10 µM
NCI-H522 lung
  TGI: > 10 µM
A498 renal
  TGI: > 10 µM
SNB-75 CNS
  TGI: > 10 µM
NCI-H226 lung
  TGI: > 10 µM
786-0 renal
  TGI: > 10 µM
MDA-MB-231 breast
  TGI: > 10 µM
SNB-19 CNS
  TGI: > 10 µM
HOP-92 NSCLC
  TGI: > 10 µM
A549 NSCLC
  TGI: > 10 µM
T-47D breast
  TGI: > 10 µM
OVCAR-4 ovarian
  TGI: > 10 µM
BT-549 breast
  TGI: > 10 µM
UO-31 renal
  TGI: > 10 µM
SF-268 CNS
  TGI: > 10 µM
COLO 205 colon
  TGI: > 10 µM
RXF 393 renal
  TGI: > 10 µM
M14 melanoma
  TGI: > 10 µM
PC-3 prostate
  TGI: > 10 µM
UACC-62 melanoma
  TGI: > 10 µM
DU-145 prostate
  TGI: > 10 µM
MDA-N
  TGI: > 10 µM
HOP-62 NSCLC
  TGI: > 10 µM
HL-60(TB) leukemia
  TGI: > 10 µM
SN12C renal
  TGI: > 10 µM
CCRF-CEM leukemia
  TGI: > 10 µM
IGROV1 ovarian
  TGI: > 10 µM
HT29 colon
  TGI: > 10 µM
SK-MEL-2 melanoma
  TGI: > 10 µM
OVCAR-3 ovarian
  TGI: > 10 µM
SF-295 CNS
  TGI: > 10 µM
SW-620 colon
  TGI: > 10 µM
NCI/ADR-RES ovarian
  TGI: > 10 µM
SK-OV-3 ovarian
  TGI: > 10 µM
SF-539 CNS
  TGI: > 10 µM
ACHN renal
  TGI: > 10 µM
EKVX NSCLC
  TGI: > 10 µM
HCC-2998 colon
  TGI: > 10 µM
OVCAR-5 ovarian
  TGI: > 10 µM
TK-10 renal
  TGI: > 10 µM
U251 CNS
  TGI: > 10 µM
SK-MEL-28 melanoma
  TGI: > 10 µM
